Results published in ChEMBL document CHEMBL2092589, “Liver-stage malaria parasites vulnerable to diverse chemical scaffolds” (Proc Natl Acad Sci U S A, 2012).
pIC50: −log10 of the molar value. Structures can show the parent of a compound that is named as a salt.

What was measured:
[1] = (§1) HARVARD: Cytotoxicity in HepG2 cell line; conditions: human
Plasmodium berghei = assay: HARVARD: Inhibition of liver stage Plasmodium berghei infection in HepG2 cells; format: functional, organism-based, ANKA
Plasmodium falciparum [2] = assay: HARVARD: Inhibition of blood stage Plasmodium falciparum 3D7 infection; format: functional, organism-based
Plasmodium falciparum [3] = assay: HARVARD: Inhibition of blood stage Plasmodium falciparum Dd2 infection; format: functional, organism-based
HepG2 = assay: as §1; conditions: human, HepG2 cells
[4] = Plasmodium berghei, ANKA, HepG2

pIC50 (Plasmodium berghei; [4]) | pIC50 (Plasmodium falciparum [3]; Plasmodium falciparum, Dd2) | Compound | pIC50 ([1]; HepG2 cells) | other results
7.60 | < 5.30 | CCCc1nc2c(C)cc(-c3nc4ccccc4n3C)cc2n1Cc1ccc(-c2ccccc2C(=O)O)cc1 | < 5.00 | pIC50 (Plasmodium falciparum [2]; Plasmodium falciparum, 3D7): < 5.30
6.33 | 6.59 | Nc1nc(Nc2ccc(S(N)(=O)=O)cc2)nn1C(=S)Nc1c(F)cccc1F | < 4.30 | 
9.52 |  | O=C1C(O)=C([C@H]2CC[C@H](c3ccc(Cl)cc3)CC2)C(=O)c2ccccc21 [ATOVAQUONE] | < 5.00 | 
5.98 |  | Cc1cc(C2CCCCC2)n(O)c(=O)c1 [CICLOPIROX OLAMINE] | < 4.00 | 
6.66 |  | CCN(CC)CCOc1ccc(C(=C(Cl)c2ccccc2)c2ccccc2)cc1 [CLOMIPHENE] | 4.96 | 
8.78 |  | C/C=C/C[C@@H](C)[C@@H](O)[C@H]1C(=O)N[C@@H](CC)C(=O)N(C)CC(=O)N(C)[C@@H](CC(C)C)C(=O)N[C@@H](C(C)C)C(=O)N(C)[C@@H](CC(C)C)C(=O)N[C@@H](C)C(=O)N[C@H](C)C(=O)N(C)[C@@H](CC(C)C)C(=O)N(C)[C@@H](CC(C)C)C(=O)N(C)[C@@H](C(C)C)C(=O)N1C [CYCLOSPORINE] |  | pIC50 (Plasmodium falciparum [2]; Plasmodium falciparum, 3D7): 6.86
5.52 | 6.81 | COc1cccc2c1C(=O)c1c(O)c3c(c(O)c1C2=O)C[C@@](O)(C(C)=O)C[C@@H]3O[C@H]1C[C@H](N)[C@H](O)[C@H](C)O1 [DAUNORUBICIN] | 5.04 | pIC50 (Plasmodium falciparum [2]; Plasmodium falciparum, 3D7): 6.47
8.27 |  | CCCCCCCCCCOc1cc2c(O)c(C(=O)OCC)cnc2cc1OCC [DECOQUINATE] | < 4.00 | 
5.77 | 6.87 | Cc1cc(N)c2ccccc2[n+]1CCCCCCCCCC[n+]1c(C)cc(N)c2ccccc21 [DEQUALINIUM CHLORIDE] | < 4.00 | 
6.54 | < 4.30 | COc1ccc2nc([S@@+]([O-])Cc3ncc(C)c(OC)c3C)[nH]c2c1 [ESOMEPRAZOLE POTASSIUM] | < 5.00 | pIC50 (Plasmodium falciparum [2]; Plasmodium falciparum, 3D7): < 4.30
6.12 |  | CC(=O)O[C@@H]1C[C@H]2C(C)(C)C(=O)C=C[C@]2(C)[C@H]2CC[C@@]3(C)[C@H](c4ccoc4)OC(=O)[C@H]4O[C@]43[C@@]21C [GEDUNIN] | < 4.00 | 
5.18 | < 5.30 | CC(=O)[C@]1(O)Cc2c(O)c3c(c(O)c2[C@@H](O[C@H]2C[C@H](N)[C@H](O)[C@H](C)O2)C1)C(=O)c1ccccc1C3=O [IDARUBICIN] | 4.91 | pIC50 (Plasmodium falciparum [2]; Plasmodium falciparum, 3D7): < 5.30
6.00 | < 5.30 | COc1c(C)c2c(c(O)c1C/C=C(\C)CCC(=O)O)C(=O)OC2 [MYCOPHENOLIC ACID] | < 4.00 | 
6.17 | < 4.30 | COc1ccc2[nH]c([S+]([O-])Cc3ncc(C)c(OC)c3C)nc2c1 (configuration not stated) [OMEPRAZOLE] | < 5.00 | pIC50 (Plasmodium falciparum [2]; Plasmodium falciparum, 3D7): < 4.30
6.08 | 7.90 | CO[C@H](C(=O)[C@@H](O)[C@@H](C)O)[C@@H]1Cc2cc3cc(O[C@H]4C[C@@H](O[C@@H]5C[C@@H](O)[C@H](O)[C@@H](C)O5)[C@H](O)[C@@H](C)O4)c(C)c(O)c3c(O)c2C(=O)[C@H]1O[C@H]1C[C@@H](O[C@@H]2C[C@@H](O)[C@@H](O[C@@H]3C[C@](C)(O)[C@H](O)[C@@H](C)O3)[C@@H](C)O2)[C@H](O)[C@@H](C)O1 [PLICAMYCIN] |  | pIC50 (Plasmodium falciparum [2]; Plasmodium falciparum, 3D7): 7.82
5.13 | 6.10 | COc1cc(NC(C)CCCN)c2ncccc2c1 (configuration not stated) [PRIMAQUINE PHOSPHATE] | < 4.00 | 
5.56 | 6.14 | CCCC(C(=O)OCCN(CC)CC)(c1ccccc1)c1ccccc1 [PROADIFEN HYDROCHLORIDE] | 4.24 | 
8.33 |  | CCc1nc(N)nc(N)c1-c1ccc(Cl)cc1 [PYRIMETHAMINE] | < 5.00 | 
5.86 | < 5.30 | CC(C)=CC[C@@H](O)C1=CC(=O)c2c(O)ccc(O)c2C1=O [SHIKONIN] | 4.55 | pIC50 (Plasmodium falciparum [2]; Plasmodium falciparum, 3D7): < 5.30
6.65 | < 5.30 | COc1ccc2[nH]c([S+]([O-])Cc3ncc(C)c(OC)c3C)nc2n1 (configuration not stated) [TENATOPRAZOLE] | < 5.00 | pIC50 (Plasmodium falciparum [2]; Plasmodium falciparum, 3D7): < 5.30
5.11 | 4.71 | CCCOc1ccccc1-c1nc2nn[nH]c2c(=O)[nH]1 [ZAPRINAST] | < 5.00 | pIC50 (Plasmodium falciparum [2]; Plasmodium falciparum, 3D7): < 4.30

Second part, the compound before the results:

Compound | pIC50 (Plasmodium berghei; [4]) | pIC50 (Plasmodium falciparum [3]; Plasmodium falciparum, Dd2) | pIC50 ([1]; HepG2 cells) | other results
Nc1ccc2ncnc(NCCc3ccc(Oc4ccccc4)cc3)c2c1 | 7.92 | 5.93 | 4.23 | 
CCCCCC[C@H]1C(=O)O[C@H](C)[C@H](NC(=O)c2cccc(NC=O)c2O)C(=O)O[C@@H](C)[C@@H]1OC(=O)CC(C)C [ANTIMYCIN A] | 8.64 |  | < 4.00 | 
COc1ccc(CCN2CCC(Nc3nc4ccccc4n3Cc3ccc(F)cc3)CC2)cc1 [ASTEMIZOLE] |  |  | 4.92 | 
CN1CCC[C@@H]1CCO[C@](C)(c1ccccc1)c1ccc(Cl)cc1 [CLEMASTINE FUMARATE] | 6.02 | 6.34 |  | pIC50 ([1]; hepg2): < 4.30; pIC50 (Plasmodium falciparum [2]; Plasmodium falciparum, 3D7): 6.18
C[C@@H]1C[C@@H]([C@H](O)CC2CC(=O)NC(=O)C2)C(=O)[C@@H](C)C1 [CYCLOHEXIMIDE] | 7.33 |  | < 4.00 | 
COc1cccc2c1C(=O)c1c(O)c3c(c(O)c1C2=O)C[C@@](O)(C(=O)CO)C[C@@H]3O[C@H]1C[C@H](N)[C@H](O)[C@H](C)O1 [DOXORUBICIN] | 6.05 | 7.24 | 4.95 | 
CC[C@H]1CN2CCc3cc(OC)c(OC)cc3[C@@H]2C[C@@H]1C[C@H]1NCCc2cc(OC)c(OC)cc21 [EMETINE HYDROCHLORIDE] | 7.10 | 7.74 | 5.00 | 
O=C(c1ccc(F)cc1)C1CCN(CCn2c(=O)[nH]c3ccccc3c2=O)CC1 [KETANSERIN TARTRATE] | 5.87 | < 5.30 | < 4.00 | 
CC[C@@H](C(=O)[C@@H](C)[C@@H](O)[C@H](C)CCc1ccc(C)c(O)c1C(=O)O)[C@H]1O[C@](CC)([C@H]2CC[C@](O)(CC)[C@H](C)O2)C[C@@H]1C [LASALOCID A SODIUM] | 7.96 |  | < 4.00 | 
CC[C@@]1([C@@H]2O[C@@H]([C@H]3O[C@@](O)(CO)[C@H](C)C[C@@H]3C)C[C@@H]2C)CC[C@H]([C@]2(C)CC[C@]3(C[C@H](O)[C@@H](C)[C@@H]([C@@H](C)[C@@H](OC)[C@H](C)C(=O)O)O3)O2)O1 [MONENSIN SODIUM] |  |  | < 4.00 | 
CC[C@@]1([C@H]2O[C@H]([C@H]3O[C@@](O)(CO)[C@H](C)C[C@@H]3C)C[C@H]2C)CC[C@H]([C@@]2(C)CC[C@]3(C[C@H](O)[C@@H](C)[C@@H]([C@H](C)[C@H](OC)[C@@H](C)C(=O)O)O3)O2)O1 [MONENSIN SODIUM] | 9.22 |  |  | 
CCCCCCCCCc1ccc(OCCOCCOCCOCCOCCOCCOCCOCCOCCO)cc1 [NONOXYNOL 9] | 5.64 | < 5.30 | 4.21 | 
CC[C@@H]1C=CC=CC[C@H](C)[C@@H](O)[C@@H](C)C(=O)[C@H](C)[C@@H](O)[C@H](C)C(=O)[C@H](C)[C@@H](O)[C@H](C)C=CC(=O)O[C@H]2[C@@H](C)[C@@H](CC1)O[C@@]1(CC[C@@H](C)[C@@H](C[C@H](C)O)O1)[C@@H]2C [OLIGOMYCIN C] | 9.30 | 6.95 | 4.82 | 
CO[C@H](C(=O)[C@@H](O)[C@@H](C)O)[C@@H]1Cc2cc3cc(O[C@H]4C[C@@H](O[C@H]5C[C@@H](O)[C@H](O)[C@@H](C)O5)[C@H](O)[C@@H](C)O4)c(C)c(O)c3c(O)c2C(=O)[C@H]1O[C@H]1C[C@@H](O[C@H]2C[C@@H](O[C@H]3C[C@](C)(O)[C@H](O)[C@@H](C)O3)[C@@H](O)[C@@H](C)O2)[C@H](O)[C@@H](C)O1 [PLICAMYCIN] |  |  | < 5.00 | 
CC[C@@H](C(=O)[C@@H](C)[C@@H](O)[C@H](C)[C@@H]1O[C@@H]([C@@H](CC)C(=O)O)CC[C@@H]1C)[C@H]1O[C@]2(C=C[C@@H](O)[C@]3(CC[C@@](C)([C@H]4CC[C@](O)(CC)[C@H](C)O4)O3)O2)[C@H](C)C[C@@H]1C [SALINOMYCIN SODIUM] | 8.70 |  | 4.24 | 
AURANOFIN |  |  |  | pIC50 (HepG2): 5.25; pIC50 (Plasmodium berghei; hepg2): 6.97; pIC50 (Plasmodium falciparum [2]): 6.46; pIC50 (Plasmodium falciparum [3]): 6.50
